Laboratory results: patent EP2902035B1, “Cell-permeable peptide inhibitors of the JNK signal transduction pathway for use in the treatment of inflammatory eye diseases” (Xigen Inflammation Ltd., priority 2010, dated 2012)

Assays:
Type in all cases: in vivo, Lewis rats
[1] = test system: c-Jun phosphorylation (JNK pathway); test: Western-Blot analysis of c-Jun phosphorylation in RPE/choroid in EIU; settings: for relative band intensity for phospho c-Jun in comparison to tubulin (densitometry): EIU
Experimental: Retinas and RPE/choroid/sclera complexes were carefully dissected out on enucleated eyes, snap frozen and stored at -80°C until being used for RT-PCR and Western-Blot analyses.
Retinas and RPE/choroid/sclera complexes were also collected at 24 hours to analyze iNOS mRNA levels by RT-PCR and c-Jun phosphorylation state by Western-Blot. Tissues were collected only from eyes treated by IV (intravenous) injection of vehicle, IV injection of the JNK-inhibitor (poly-)peptide of SEQ ID NO: 11, IVT (intravitreal) injection of vehicle and IVT injection of the JNK-inhibitor (poly-)peptide of SEQ ID NO: 11 (n=2 eyes per condition collected from separate rats). Eyes were selected so that their EIU clinical score was representative of the mean of the experimental group they belong to, i.e 3 for eyes treated by IV and IVT injection of vehicle and 2 for eyes treated by IV or IVT injection of the JNK-inhibitor (poly-)peptide of SEQ ID NO: 11.
RPE/choroid/sclera complexes and neuroretinas (2 per experimental group) were snap frozen immediately after dissection and stored at -80°C until use. Tissues were homogenized in 500 µL of lysis buffer (MOPS SDS Running Buffer, Invitrogen, Cergy-Pontoise, France) supplemented with protease inhibitor cocktail (Roche Diagnostics, Meylan, France) (one tablet for 50 mL). After addition of LDS Sample Buffer (Invitrogen) and heating for 5 min at 100°C, equal amounts of proteins were subjected to electrophoresis in a NuPAGE 4-12% Bis-Tris gel (Invitrogen) using MOPS SDS Running Buffer. The bands obtained were then electrotransferred onto nitrocellulose membranes (Schleicher & Schuell BioScience, Dassel, Germany).
Western-blot analyses were carried out to analyze the effect of the JNK-inhibitor (poly-)peptide of SEQ ID NO: 11 on the three mitogen-activated protein kinase (MAPK) pathways. To analyze the JNK pathway, blots were sequentially incubated with a rabbit Phospho-c-Jun (Ser63) primary antibody (or Phospho-c-Jun (Ser73) antibody) and an anti-rabbit IgG HRP-linked secondary antibody according to the manufacturer's instruction (PhosphoPlus c-Jun (Ser63) II and c-Jun (Ser73) antibody kit (9260) purchased from Cell Signaling Technology (Ozyme, St Quentin Yvelines, France)). Bands were visualized using the ECL Western Blotting Detection Reagents Kit (Amersham Biosciences, Orsay, France). […] The relative band intensity for phospho c-Jun (Ser 63 or Ser73) was calculated in comparison to that for -tubulin after densitometry analysis (ImageJ software).

[2] = test system: chemokines/ cytokines in the serum; test: Chemokine/Cytokine Multiplex Assay on serum in EIU; settings: tendency, not statistically significant
Experimental: (§1) Aqueous humor and vitreous were collected and pooled from each enucleated eye. Ocular fluids were immediately centrifuged and the cell-free fractions were collected and frozen at -20°C before analysis by Multiplex assay. Blood samples were first clotted at room temperature for 2 hours and then at 4°C overnight. Serum was collected, centrifuged and the clear supernatant was collected and frozen at -20°C before Multiplex analysis.
(§2) In a first set of experiment, 70 rats were randomized into 14 experimental groups with 5 rats per group. Uveitis was induced in each group and rats were killed 6 hours (4 groups), 24 hours (6 groups) and 48 hours (4 groups) after LPS challenge. For each time point tested (i.e. 6h, 24h and 48h), rats treated by intravenous or intravitreous injections of vehicle (NaCl 0.9%) or the JNK-inhibitor (poly-)peptide of SEQ ID NO: 11 were compared to untreated control uveitic rats. Two additional groups, treated by intravenous injection of vehicle and intravitreal injection of dexamethasone were used at 24 hours. Clinical ocular inflammation was recorded only at 24 hours (see Scoring of Endotoxin-Induced Uveitis (EIU) section). At each time point, intraocular fluids from each eye (n=10 per group) and serum from each animal (n=5 per group) were used for Chemokine/Cytokine Multiplex Assay.
Intraocular fluids (diluted to obtain a final volume of 25 µL) and sera (25 µL of 1:5 dilution) were subjected to multiplex bead analysis. This method uses microspheres as the solid support for immunoassays 12 and allows the titration of a greater number of cytokines with increased sensitivity than occurs with ELISA.13 For each sample, seventeen analytes were quantified simultaneously using the rat Cytokine/Chemokine-17plex kit (Milliplex Map Kit, Millipore, Saint-Quentin-en-Yvelines, France) according to the manufacturer's instructions: Chemokines MCP-1/CCL2, MIP-1α/CCL3, RANTES/CCL5, IP-10/CXCL10 (IFN-inducible protein-10) and GRO/KC; proinflammatory mediators IL-1, IL-18 and TNF-; Th1/Th2/Th17 cytokines IL-2 and IFN- / IL-4, IL-5, IL-6, IL-10 and IL-13 / IL-17. […]

[3] = test system: intraocular LPS-induced Chemokine/Cytokine profiles; test: Chemokine/Cytokine Multiplex Assay on ocular fluids in EIU
Experimental: as §1, §2
Intraocular fluids (diluted to obtain a final volume of 25 µL) and sera (25 µL of 1:5 dilution) were subjected to multiplex bead analysis. This method uses microspheres as the solid support for immunoassays 12 and allows the titration of a greater number of cytokines with increased sensitivity than occurs with ELISA.13 For each sample, seventeen analytes were quantified simultaneously using the rat Cytokine/Chemokine-17plex kit (Milliplex Map Kit, Millipore, Saint-Quentin-en-Yvelines, France) according to the manufacturer's instructions: Chemokines MCP-1/CCL2, MIP-1α/CCL3, RANTES/CCL5, IP-10/CXCL10 (IFN-inducible protein-10) and GRO/KC; proinflammatory mediators IL-1, IL-18 and TNF-; Th1/Th2/Th17 cytokines IL-2 and IFN- / IL-4, IL-5, IL-6, IL-10 and IL-13 / IL-17. The assay was performed in a 96-well filter plate and standard curves for each cytokine were generated with a Rat Cytokine Standard provided in the kit. All incubation steps were performed under medium orbital agitation and in the dark to protect the beads from light. Data acquisition and analysis were performed with the manager software version 4.1 (Bioplex; Bio-Rad) with four or five logistic parameters for standard curves. Detection thresholds for all the analytes were estimated around 1 to 10 pg/mL.

[4] = ocular fluids, IV at the time of LPS challenge, at 6 and 24 hours
[5] = ocular fluids, IV, at different time points
[6] = ocular fluids, IVT, at 24 hours
[7] = treated versus untreated eyes, any of the tested time points

## CC(C)C[C@@H](NC(=O)[C@@H](Cc1ccccc1)NC(=O)[C@H]1CCCN1C(=O)[C@@H](CCC(N)=O)NC(=O)[C@H](NC(=O)[C@H]1CCCN1C(=O)[C@@H](CCCNC(=N)N)NC(=O)[C@@H](CO)NC(=O)[C@@H](CCC(N)=O)NC(=O)[C@H](N)CC(=O)O)C(C)C)C(=O)N[C@H](CC(N)=O)C(=O)N[C@H](CC(C)C)C(=O)N[C@@H](C(=O)N[C@@H](C(=O)N1CCC[C@@H]1C(=O)N[C@H](CCCNC(=N)N)C(=O)N[C@H](CCCCN)C(=O)N1CCC[C@@H]1C(=O)N[C@H](CCCNC(=N)N)C(=O)N1CCC[C@@H]1C(=O)N1CCC[C@@H]1C(=O)N[C@H](CCCNC(=N)N)C(=O)N[C@H](CCCNC(=N)N)C(=O)N[C@H](CCCNC(=N)N)C(=O)N[C@H](CCC(N)=O)C(=O)N[C@H](CCCNC(=N)N)C(=O)N[C@H](CCCNC(=N)N)C(=O)N[C@H](CCCCN)C(=O)N[C@H](CCCCN)C(=O)N[C@H](CCCNC(=N)N)C(=O)NCC(=O)O)[C@H](C)O)[C@H](C)O [SEQ ID NO: 11]
[1]; RPE/ choroid extracts, 24 hours after intravenous or intravitreous injection
  Phosphorylation of c-Jun on Ser63 and Ser73 residues: reduced
[1]; RPE/ choroid, 24 hours after IV (20 µg/kg)
  relative band intensity for phospho c-Jun in comparison to tubulin (densitometry): 0.28 ± 0.01
[1]; RPE/ choroid, 24 hours after IVT (0.2 µg/injection)
  relative band intensity for phospho c-Jun in comparison to tubulin (densitometry): 0.35 ± 0.08
[1]; RPE/ choroid, after IV or IVT administration, versus vehicle
  decrease in c-Jun phosphorylation: approximately 3 fold
[2]; after IV administration
  IL-2: reduction
  MIP-1α: reduction
[2]; after IVT
  IL-2: reduction
[3]; [4]
  MCP-1: significant reduction
  MIP-1α: significant reduction
  RANTES: significant reduction
[3]; ocular fluids, IV, at 6 hours
  GRO/KC: significantly reduced
[3]; ocular fluids, IV, at 6 hours, not significantly
  IL-10: tended to increase
[3]; [5]
  IL-6: significantly reduced
  INF-γ: significantly reduced
  TNF-α: significantly reduced
[3]; ocular fluids, IVT, at 6 hours
  IL-2: trend to a decrease
  IL-6: trend to a decrease
  MCP-1: trend to a decrease
  TNF-α: trend to a decrease
[3]; [6]
  IL-2: marked decrease
  IL-13: increase
[3]; ocular fluids, injected into the vitreous at the time of LPS challenge, versus vehicle
  chemokine/ cytokine profiles: not strikingly different
[3]; [7]
  IL-1β: did not differ
  IL-4: did not differ
  IL-18: did not differ
